Assay: Surface tension of hypohalite-based disinfecting compositions, Wilhelmy plate method
Format: physicochemical
Conditions: hypohalite-based disinfecting composition with this surfactant alone (0% or 100% point of the blend plot)
Protocol: Various combinations of surfactants were tested with respect to the surface tension of hypohalite-based disinfecting compositions comprising the surfactant blend. Specifically, exemplary blends were prepared using varying surfactants having an average tail chain length of a C10 to C14 value. The surfactant blends were tested at varying molar ratios.
Accordingly, each surfactant blend comprised a first surfactant having a first surfactant surface tension T^1 and a second surfactant having a second surfactant surface tension T^2. The respective overall surface tension T for each surfactant blend was thereafter tested, using the Wilhelmy plate method.

Going from CCCCCCCCCCO[C@@H]1O[C@H](CO)[C@@H](O)[C@H](O)[C@H]1O [decyl glucoside] to CCCCCCCCCCCCOS(=O)(=O)[O-].[Na+] [sodium lauryl sulfate], the “individual surfactant surface tension” value rises from 28.7 mN/m to 29.7 mN/m.

Going from CCCCCCCCCCCCCCOS(=O)(=O)[O-].[Na+] [sodium myristyl sulfate] to cocobetaine, the “individual surfactant surface tension” value falls from 39.8 mN/m to 34.7 mN/m.

Compared with lauramine oxide, laureth-6 is lower in “individual surfactant surface tension” value: 32.4 mN/m for the first, 29.7 mN/m for the second.

Compared with myristamine oxide, undeceth-3 is lower in “individual surfactant surface tension” value: 32.1 mN/m for the first, 26.9 mN/m for the second.
